This is an account of results in US9642831B2, “Substituted chromanes and method of use” (AbbVie S.á.r.l., priority 2014, dated 2017).

Each structure is given as a SMILES string.

In the test the target is F508delCFTR (Homo sapiens, UniProt P13569, DEL508-508). In words: Cell Surface Expression-Horse Radish Peroxidase (CSE-HRP) assay. In kind it is cell-based. Also on record: expressed in transfected cells; host or cells: CFBE41o- human lung derived epithelial cell line, doxycycline-inducible. To be noted: CFBE4lo-F508delCFTR-HRP cells; for EC50: 18-24 hours at 33° C., 8-point curve, highest concentration 20 μM, luminescence readout; for Emax: maximum % activity at any tested concentration, normalized to on-plate positive control (3 μM Example 1). Summed up: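 Following 18-24 h compound exposure at 33° C. Expression was doxycycline-induced beforehand. % activity versus DMSO and a 3 μM corrector control gave maximum activity and EC50 from a variable-Hill sigmoidal fit.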
Chain of F508delCFTR (P13569 with tags, fused parts or gaps DEL508-508): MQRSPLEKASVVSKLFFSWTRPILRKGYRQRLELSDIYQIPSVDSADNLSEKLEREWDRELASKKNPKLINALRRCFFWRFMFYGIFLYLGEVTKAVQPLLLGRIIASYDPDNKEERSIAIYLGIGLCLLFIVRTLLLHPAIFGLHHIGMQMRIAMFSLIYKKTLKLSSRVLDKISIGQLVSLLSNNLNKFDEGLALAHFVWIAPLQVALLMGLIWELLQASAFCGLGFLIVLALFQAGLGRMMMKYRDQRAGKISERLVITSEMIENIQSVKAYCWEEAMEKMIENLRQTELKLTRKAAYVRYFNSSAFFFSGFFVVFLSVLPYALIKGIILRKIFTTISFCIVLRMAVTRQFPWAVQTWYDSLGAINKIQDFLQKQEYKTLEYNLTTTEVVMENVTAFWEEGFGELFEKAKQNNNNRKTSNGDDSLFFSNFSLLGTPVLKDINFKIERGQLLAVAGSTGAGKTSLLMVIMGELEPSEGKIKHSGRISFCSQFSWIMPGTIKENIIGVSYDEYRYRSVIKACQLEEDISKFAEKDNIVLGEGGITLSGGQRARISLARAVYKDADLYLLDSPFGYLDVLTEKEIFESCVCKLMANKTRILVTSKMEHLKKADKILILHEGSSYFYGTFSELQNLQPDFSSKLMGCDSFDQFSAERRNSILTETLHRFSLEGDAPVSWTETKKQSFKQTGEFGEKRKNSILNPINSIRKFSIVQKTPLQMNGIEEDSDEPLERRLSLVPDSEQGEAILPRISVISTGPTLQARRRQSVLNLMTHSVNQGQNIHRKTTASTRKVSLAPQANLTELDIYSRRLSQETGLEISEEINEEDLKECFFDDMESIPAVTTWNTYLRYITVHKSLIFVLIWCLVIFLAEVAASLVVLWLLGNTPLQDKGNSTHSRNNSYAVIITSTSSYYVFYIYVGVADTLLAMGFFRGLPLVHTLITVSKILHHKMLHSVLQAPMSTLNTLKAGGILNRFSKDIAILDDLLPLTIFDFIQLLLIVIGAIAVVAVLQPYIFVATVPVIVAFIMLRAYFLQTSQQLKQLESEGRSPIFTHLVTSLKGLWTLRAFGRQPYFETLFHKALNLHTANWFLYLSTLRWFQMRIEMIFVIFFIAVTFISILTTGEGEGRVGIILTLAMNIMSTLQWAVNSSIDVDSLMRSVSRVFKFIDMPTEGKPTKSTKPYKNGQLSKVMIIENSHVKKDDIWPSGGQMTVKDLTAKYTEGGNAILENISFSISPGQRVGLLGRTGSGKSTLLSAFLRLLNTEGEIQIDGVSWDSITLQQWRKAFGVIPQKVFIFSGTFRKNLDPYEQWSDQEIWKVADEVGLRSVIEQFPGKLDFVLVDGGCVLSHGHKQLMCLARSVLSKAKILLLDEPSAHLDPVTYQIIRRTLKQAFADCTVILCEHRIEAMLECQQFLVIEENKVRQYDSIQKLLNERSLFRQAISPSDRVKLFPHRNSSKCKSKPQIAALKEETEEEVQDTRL

As usually defined, the EC50 is the midpoint of the concentration-response curve. Read a low EC50 as a more potent agent. One may read the Emax as the maximal effect, on the per cent scale that the assay sets.

The compound `COc1ccc2c(c1)C(NC(=O)C1(c3ccc4c(c3)OC(F)(F)O4)CC1)C(Cc1ccc(OC)c(OC)c1)CO2` (stereo not shown) [Example 72, 1-(2,2-difluoro-1,3-benzodioxol-5-yl)-N-[3-(3,4-dimethoxybenzyl)-6-methoxy-3,4-dihydro-2H-chromen-4-yl]cyclopropanecarboxamide] came in with an EC50 of 2.5 µM and an Emax of 71%.

In turn, `CCOC(=O)[C@H]1C[C@@H](NC(=O)C2(c3ccc4c(c3)OC(F)(F)O4)CC2)c2ccc(OC)cc2O1` (racemic) [Example 163, ethyl rac-(2R,4R)-4-({[1-(2,2-difluoro-1,3-benzodioxol-5-yl)cyclopropyl]carbonyl}amino)-7-methoxy-3,4-dihydro-2H-chromene-2-carboxylate] registered a concentration giving a half-maximal response (EC50) of 3.59 µM and an Emax of 42%.

Turning to `COc1ccc2c(c1)O[C@@H](C(=O)O)C[C@@H]2NC(=O)C1(c2ccc3c(c2)OC(F)(F)O3)CC1` (racemic) [Example 134, rac-(2R,4S)-4-({[1-(2,2-difluoro-1,3-benzodioxol-5-yl)cyclopropyl]carbonyl}amino)-7-methoxy-3,4-dihydro-2H-chromene-2-carboxylic acid], the EC50 is > 20 µM and the Emax was determined as 4%.

As to `CS(=O)(=O)N1CCC2(CC1)CC(NC(=O)C1(c3ccc4c(c3)OC(F)(F)O4)CC1)c1ccc(F)cc1O2` (stereo not shown) [Example 101, 1-(2,2-difluoro-1,3-benzodioxol-5-yl)-N-[7-fluoro-1′-(methylsulfonyl)-3,4-dihydrospiro[chromene-2,4′-piperidin]-4-yl]cyclopropanecarboxamide], a half-maximal response (EC50) required 6.65 µM and the Emax is 60%.

For the compound `COc1ccc2c(c1)O[C@@H](C(=O)N1CCCOCC1)C[C@@H]2NC(=O)C1(c2ccc3c(c2)OC(F)(F)O3)CC1` (racemic) [Example 194, rac-1-(2,2-difluoro-1,3-benzodioxol-5-yl)-N-[(2R,4S)-7-methoxy-2-(1,4-oxazepan-4-ylcarbonyl)-3,4-dihydro-2H-chromen-4-yl]cyclopropanecarboxamide], the EC50 amounted to 0.88 µM and the Emax is 68%.

On to `COc1ccc2c(c1)O[C@@H](c1cccnc1)C[C@H]2NC(=O)C1(c2ccc3c(c2)OC(F)(F)O3)CC1` (racemic) [Example 57, rac-1-(2,2-difluoro-1,3-benzodioxol-5-yl)-N-[(2R,4R)-7-methoxy-2-(pyridin-3-yl)-3,4-dihydro-2H-chromen-4-yl]cyclopropanecarboxamide], for which the EC50 came to 1.69 µM and the Emax turned out to be 112%.

Compound `O=C(O)c1csc([C@@H]2C[C@H](NC(=O)C3(c4ccc5c(c4)OC(F)(F)O5)CC3)c3ccccc3O2)n1` (stereo in doubt) [Example 143, rel-2-[(2S,4S)-4-({[1-(2,2-difluoro-1,3-benzodioxol-5-yl)cyclopropyl]carbonyl}amino)-3,4-dihydro-2H-chromen-2-yl]-1,3-thiazole-4-carboxylic acid] displayed a concentration for a half-maximal effect (EC50) of 8.5 µM and a maximum response (Emax) of 27%.

As to `CCOC(=O)c1csc([C@H]2C[C@H](NC(=O)C3(c4ccc5c(c4)OC(F)(F)O5)CC3)c3ccccc3O2)n1` (relative stereo) [Example 141, ethyl rel-2-[(2R,4S)-4-({[1-(2,2-difluoro-1,3-benzodioxol-5-yl)cyclopropyl]carbonyl}amino)-3,4-dihydro-2H-chromen-2-yl]-1,3-thiazole-4-carboxylate], it took 3.05 µM to reach a half-maximal effect (EC50) and the Emax came out at 54%.

`CCCN(CCO)C(=O)[C@H]1C[C@H](NC(=O)C2(c3ccc4c(c3)OC(F)(F)O4)CC2)c2ccc(OC)cc2O1` (racemic) [Example 183, rac-(2R,4S)-4-({[1-(2,2-difluoro-1,3-benzodioxol-5-yl)cyclopropyl]carbonyl}amino)-N-(2-hydroxyethyl)-7-methoxy-N-propyl-3,4-dihydro-2H-chromene-2-carboxamide] showed an EC50 of 0.86 µM and an Emax of 67%.

`O=C(N[C@@H]1CC(CF)(CF)Oc2cc(Cl)ccc21)C1(c2ccc3c(c2)OC(F)(F)O3)CC1` [Example 87, N-[(4R)-7-chloro-2,2-bis(fluoromethyl)-3,4-dihydro-2H-chromen-4-yl]-1-(2,2-difluoro-1,3-benzodioxol-5-yl)cyclopropanecarboxamide] returned an EC50 of 4.63 µM and an Emax of 146%.

With `CC(=O)N1CC2(CC(NC(=O)C3(c4ccc5c(c4)OC(F)(F)O5)CC3)c3ccc(F)cc3O2)C1` (stereo not shown) [Example 105, N-(1-acetyl-7′-fluoro-3′,4′-dihydrospiro[azetidine-3,2′-chromen]-4′-yl)-1-(2,2-difluoro-1,3-benzodioxol-5-yl)cyclopropanecarboxamide], the EC50 was 7.46 µM and the Emax stood at 34%.

In the case of `C[C@]1(C(F)F)C[C@@H](NC(=O)C2(c3ccc4c(c3)OC(F)(F)O4)CC2)c2ccc(Cl)cc2O1` [Example 84, N-[(2R,4R)-7-chloro-2-(difluoromethyl)-2-methyl-3,4-dihydro-2H-chromen-4-yl]-1-(2,2-difluoro-1,3-benzodioxol-5-yl)cyclopropanecarboxamide], the response was half-maximal at 2.24 µM (EC50) and the maximal effect (Emax) turned out to be 91%.

In the case of `CC(=O)N1CCC2(CC1)CC(NC(=O)C1(c3ccc4c(c3)OC(F)(F)O4)CC1)c1ccc(F)cc1O2` (stereo not shown) [Example 102, N-(1′-acetyl-7-fluoro-3,4-dihydrospiro[chromene-2,4′-piperidin]-4-yl)-1-(2,2-difluoro-1,3-benzodioxol-5-yl)cyclopropanecarboxamide], the EC50 worked out at 4.86 µM and the Emax came to 89%.

The compound `COc1ccc2c(c1)O[C@@H](C(=O)N(C)CC(O)c1ccccc1)C[C@H]2NC(=O)C1(c2ccc3c(c2)OC(F)(F)O3)CC1` (mixture of isomers) [Example 168, rac-(2R,4R)-4-({[1-(2,2-difluoro-1,3-benzodioxol-5-yl)cyclopropyl]carbonyl}amino)-N-(2-hydroxy-2-phenylethyl)-7-methoxy-N-methyl-3,4-dihydro-2H-chromene-2-carboxamide] showed an EC50 of 1.16 µM and an Emax of 67%.

In turn, `COc1ccc2c(c1)O[C@@H](C1CC1)C[C@H]2NC(=O)C1(c2ccc3c(c2)OC(F)(F)O3)CC1` (racemic) [Example 40, rac-N-[(2R,4R)-2-cyclopropyl-7-methoxy-3,4-dihydro-2H-chromen-4-yl]-1-(2,2-difluoro-1,3-benzodioxol-5-yl)cyclopropanecarboxamide] yielded an EC50 of 2.68 µM and an Emax of 107%.

Take `COC(=O)c1cccc([C@H]2C[C@H](NC(=O)C3(c4ccc5c(c4)OC(F)(F)O5)CC3)c3cc(C)ccc3O2)c1` [Example 12, methyl 3-[(2R,4S)-4-({[1-(2,2-difluoro-1,3-benzodioxol-5-yl)cyclopropyl]carbonyl}amino)-6-methyl-3,4-dihydro-2H-chromen-2-yl]benzoate]: the EC50 came to 5.47 µM and the Emax is 58%.

As for `COc1ccc2c(c1)OCCC2NC(=O)C1(c2ccc3c(c2)OC(F)(F)O3)CC1` (stereo not shown) [Example 59, 1-(2,2-difluoro-1,3-benzodioxol-5-yl)-N-(7-methoxy-3,4-dihydro-2H-chromen-4-yl)cyclopropanecarboxamide], the EC50 stood at 3.66 µM and the Emax was determined as 101%.
